Assay results: ChEMBL document CHEMBL3525901 (Drug Metab Dispos, 2012)

Assays:
Assay type in all cases: ADME, organism-based
[1] = AUC (0 to infinity) in Wistar rat extracellular fluid at 10 mg/kg, sc by HPLC-MS/MS analysis; design: time infinity, dose 10 mg/kg, route subcutaneous
Plasma [2] = assay: Unbound Cmax in Wistar rat plasma at 10 mg/kg, sc by HPLC-MS/MS analysis; design: dose 10 mg/kg, route subcutaneous; conditions: in vivo
[3] = Ratio of steady state drug level in extracellular fluid to unbound drug level in plasma of Wistar rat at 10 mg/kg, sc by HPLC-MS/MS analysis; design: dose 10 mg/kg, route subcutaneous
Plasma [4] = assay: Unbound AUC (0 to infinity) in Wistar rat plasma at 10 mg/kg, sc by HPLC-MS/MS analysis; design: dose 10 mg/kg, route subcutaneous; conditions: in vivo
[5] = Cmax in Wistar rat extracellular fluid at 10 mg/kg, sc by HPLC-MS/MS analysis; design: dose 10 mg/kg, route subcutaneous
[6] = Unbound Tmax in Wistar rat plasma at 10 mg/kg, sc by HPLC-MS/MS analysis; design: dose 10 mg/kg, route subcutaneous; conditions: read-out: fTmax (converted)
[7] = AUC (0 to infinity) in rat; design: time infinity; conditions: plasma
[8] = Fraction unbound in Wistar rat plasma at 10 mg/kg, sc by HPLC-MS/MS analysis; design: dose 10 mg/kg, route subcutaneous
[9] = Ratio of unbound AUC in extracellular fluid to unbound AUC in plasma of Wistar rat at 10 mg/kg, sc by HPLC-MS/MS analysis; design: dose 10 mg/kg, route subcutaneous; conditions: read-out: Ratio AUC
[10] = Tmax in Wistar rat extracellular fluid at 10 mg/kg, sc by HPLC-MS/MS analysis; design: dose 10 mg/kg, route subcutaneous
Brain [11] = assay: Unbound volume of distribution in Wistar rat brain at 10 mg/kg, sc by HPLC-MS/MS analysis; design: dose 10 mg/kg, route subcutaneous; conditions: in vivo
Rattus norvegicus [12] = assay: Absorption rate constant in Wistar rat extracellular fluid at […], sc by HPLC-MS/MS analysis; design: dose 1.6 mg/kg, route subcutaneous; conditions: in vivo
Rattus norvegicus [13] = assay: Central volume of distribution in Wistar rat extracellular fluid at […], sc by HPLC-MS/MS analysis; design: dose 1.6 mg/kg, route subcutaneous; conditions: in vivo
[14] = Fraction unbound in Wistar rat plasma at […], sc by HPLC-MS/MS analysis; design: dose 1.6 mg/kg, route subcutaneous
Brain [15] = assay: Unbound volume of distribution in Wistar rat brain at […], sc by HPLC-MS/MS analysis; design: dose 1.6 mg/kg, route subcutaneous; conditions: in vivo
[16] = Ratio of steady state drug level in extracellular fluid to unbound drug level in plasma of Wistar rat at […], sc by HPLC-MS/MS analysis; design: dose 1.6 mg/kg, route subcutaneous
[17] = Tmax in Wistar rat extracellular fluid at […], sc by HPLC-MS/MS analysis; design: dose 1.6 mg/kg, route subcutaneous
[18] = AUC (0 to infinity) in Wistar rat extracellular fluid at […], sc by HPLC-MS/MS analysis; design: dose 1.6 mg/kg, route subcutaneous, time infinity
[19] = Ratio of unbound AUC in extracellular fluid to unbound AUC in plasma of Wistar rat at […], sc by HPLC-MS/MS analysis; design: dose 1.6 mg/kg, route subcutaneous; conditions: read-out: Ratio AUC
Plasma [20] = assay: Unbound AUC (0 to infinity) in Wistar rat plasma at […], sc by HPLC-MS/MS analysis; design: dose 1.6 mg/kg, route subcutaneous; conditions: in vivo
[21] = Cmax in Wistar rat extracellular fluid at […], sc by HPLC-MS/MS analysis; design: dose 1.6 mg/kg, route subcutaneous
[22] = Ratio of uptake clearance to efflux clearance in Wistar rat brain extracellular fluid at […], sc by HPLC-MS/MS analysis; design: dose 1.6 mg/kg, route subcutaneous; conditions: in vivo
[23] = Systemic clearance in Wistar rat extracellular fluid at […], sc by HPLC-MS/MS analysis; design: dose 1.6 mg/kg, route subcutaneous
[24] = Unbound Tmax in Wistar rat plasma at […], sc by HPLC-MS/MS analysis; design: dose 1.6 mg/kg, route subcutaneous; conditions: read-out: fTmax (converted)
Plasma [25] = assay: Unbound Cmax in Wistar rat plasma at […], sc by HPLC-MS/MS analysis; design: dose 1.6 mg/kg, route subcutaneous; conditions: in vivo
[26] = Equilibration rate constant in Wistar rat brain extracellular fluid at […], sc by HPLC-MS/MS analysis; design: dose 1.6 mg/kg, route subcutaneous; conditions: in vivo
Rattus norvegicus [27] = assay: Absorption rate constant in Wistar rat extracellular fluid at 10 mg/kg, sc by HPLC-MS/MS analysis; design: dose 10 mg/kg, route subcutaneous; conditions: in vivo
Rattus norvegicus [28] = assay: Central volume of distribution in Wistar rat extracellular fluid at 10 mg/kg, sc by HPLC-MS/MS analysis; design: dose 10 mg/kg, route subcutaneous; conditions: in vivo
[29] = Ratio of uptake clearance to efflux clearance in Wistar rat brain extracellular fluid at 10 mg/kg, sc by HPLC-MS/MS analysis; design: dose 10 mg/kg, route subcutaneous; conditions: in vivo
[30] = Equilibration rate constant in Wistar rat brain extracellular fluid at 10 mg/kg, sc by HPLC-MS/MS analysis; design: dose 10 mg/kg, route subcutaneous; conditions: in vivo
[31] = Systemic clearance in Wistar rat extracellular fluid at 10 mg/kg, sc by HPLC-MS/MS analysis; design: dose 10 mg/kg, route subcutaneous
[32] = Systemic clearance in Wistar rat extracellular fluid at 3 mg/kg, sc by HPLC-MS/MS analysis; design: dose 3 mg/kg, route subcutaneous
Rattus norvegicus [33] = assay: Absorption rate constant in Wistar rat extracellular fluid at 3 mg/kg, sc by HPLC-MS/MS analysis; design: dose 3 mg/kg, route subcutaneous; conditions: in vivo
Plasma [34] = assay: Unbound AUC (0 to infinity) in Wistar rat plasma at 3 mg/kg, sc by HPLC-MS/MS analysis; design: dose 3 mg/kg, route subcutaneous; conditions: in vivo
[35] = AUC (0 to infinity) in Wistar rat extracellular fluid at 3 mg/kg, sc by HPLC-MS/MS analysis; design: time infinity, dose 3 mg/kg, route subcutaneous
[36] = Tmax in Wistar rat extracellular fluid at 3 mg/kg, sc by HPLC-MS/MS analysis; design: dose 3 mg/kg, route subcutaneous
Rattus norvegicus [37] = assay: Central volume of distribution in Wistar rat extracellular fluid at 3 mg/kg, sc by HPLC-MS/MS analysis; design: dose 3 mg/kg, route subcutaneous; conditions: in vivo
[38] = Ratio of uptake clearance to efflux clearance in Wistar rat brain extracellular fluid at 3 mg/kg, sc by HPLC-MS/MS analysis; design: dose 3 mg/kg, route subcutaneous; conditions: in vivo
[39] = Cmax in Wistar rat extracellular fluid at 3 mg/kg, sc by HPLC-MS/MS analysis; design: dose 3 mg/kg, route subcutaneous
[40] = Ratio of unbound AUC in extracellular fluid to unbound AUC in plasma of Wistar rat at 3 mg/kg, sc by HPLC-MS/MS analysis; design: dose 3 mg/kg, route subcutaneous; conditions: read-out: Ratio AUC
Plasma [41] = assay: Unbound Cmax in Wistar rat plasma at 3 mg/kg, sc by HPLC-MS/MS analysis; design: dose 3 mg/kg, route subcutaneous; conditions: in vivo
Brain [42] = assay: Unbound volume of distribution in Wistar rat brain at 3 mg/kg, sc by HPLC-MS/MS analysis; design: dose 3 mg/kg, route subcutaneous; conditions: in vivo
[43] = Equilibration rate constant in Wistar rat brain extracellular fluid at 3 mg/kg, sc by HPLC-MS/MS analysis; design: dose 3 mg/kg, route subcutaneous; conditions: in vivo
[44] = Ratio of steady state drug level in extracellular fluid to unbound drug level in plasma of Wistar rat at 3 mg/kg, sc by HPLC-MS/MS analysis; design: dose 3 mg/kg, route subcutaneous
[45] = Unbound Tmax in Wistar rat plasma at 3 mg/kg, sc by HPLC-MS/MS analysis; design: dose 3 mg/kg, route subcutaneous; conditions: read-out: fTmax (converted)
[46] = Fraction unbound in Wistar rat plasma at 3 mg/kg, sc by HPLC-MS/MS analysis; design: dose 3 mg/kg, route subcutaneous

`CN1CCN(C2=Nc3cc(Cl)ccc3Nc3ccccc32)CC1` [CLOZAPINE] showed an AUC(0-inf) [1] of 0.0443 µM·h, a fCmax (Plasma [2]) of 77 nM and a Kp uu [3] of 0.13. For the same compound, the fAUC (Plasma [4]) was 19732 nM·min, the Cmax [5] was 6 nM and the Tmax [6] was 1 h. For the same compound, the AUC(0-inf) [7] was 5.39 µM·h, the fraction unbound [8] was 0.061 and the Kp uu [9] was 0.15. The Tmax [10] was 4 h and the Vdu (Brain [11]) was 70 mL/g.
For `CN(C)CCC[C@@]1(c2ccc(F)cc2)OCc2cc(C#N)ccc21` [ESCITALOPRAM], the ka (Rattus norvegicus [12]) was 0.02 min⁻¹, the Vd (Rattus norvegicus [13]) was 4.1 L/kg and the fraction unbound [14] was 0.5. It also gave a Vdu (Brain [15]) of 18 mL/g, a Kp uu [16] of 1.06 and a Tmax [17] of 2 h. For the same compound, the AUC(0-inf) [18] was 0.197 µM·h, the Kp uu [19] was 0.86 and the fAUC (Plasma [20]) was 13888 nM·min. For the same compound, the Cmax [21] was 62 nM, the Ratio [22] was 1.24 and the CL/F [23] was 277 mL/min/kg. For the same compound, the Tmax [24] was 0.433 h, the fCmax (Plasma [25]) was 131 nM and the Ke [26] was 0.015 min⁻¹.
`Clc1ccc2c(c1)N=C(N1CCNCC1)c1ccccc1N2` [N-DESMETHYLCLOZAPINE] gave an AUC(0-inf) [1] of 0.0134 µM·h, a ka (Rattus norvegicus [27]) of 0.5 min⁻¹ and a fCmax (Plasma [2]) of 90 nM. It also gave a Kp uu [3] of 0.04, a Vd (Rattus norvegicus [28]) of 607 L/kg and a fAUC (Plasma [4]) of 32296 nM·min. The Cmax [5] was 2 nM, the Tmax [6] was 1.05 h and the fraction unbound [8] was 0.11. For the same compound, the Ratio [29] was 0.05, the Ke [30] was 0.006 min⁻¹ and the CL/F [31] was 1600 mL/min/kg. For the same compound, the Kp uu [9] was 0.03, the Tmax [10] was 4.63 h and the Vdu (Brain [11]) was 82 mL/g.
`Cc1nc2n(c(=O)c1CCN1CCC(c3noc4cc(F)ccc34)CC1)CCCC2` [RISPERIDONE] gave a CL/F [32] of 307 mL/min/kg, a ka (Rattus norvegicus [33]) of 0.03 min⁻¹ and a fAUC (Plasma [34]) of 24022 nM·min. The AUC(0-inf) [35] was 0.0591 µM·h, the Tmax [36] was 1.25 h and the Vd (Rattus norvegicus [37]) was 21 L/kg. It also gave a Ratio [38] of 0.14, a Cmax [39] of 20 nM and a Kp uu [40] of 0.15. It also gave a fCmax (Plasma [41]) of 181 nM, a Vdu (Brain [42]) of 10 mL/g and a Ke [43] of 0.006 min⁻¹. It also gave a Kp uu [44] of 0.21, a Tmax [45] of 0.883 h and a fraction unbound [46] of 0.16.
